Assay results: the supplement of paper PMC12137928
Where a name gives a salt, the structure may show the parent alone.

System: HCT116
Conditions: 72 h
Outline: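 For IC50 and maximal efficacy, four-parameter Hill fits were used. Input values were CellTiter-Glo luminescence from HCT116 cells seeded at 250 per well in 1536-well plates, normalized to vehicle (0%) and positive control (-100%). Pattern correction followed normalization.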

SMILES	IC50 cell viability (ICRF193 0 nM) [µM]	IC50 cell viability (ICRF193 200 nM) [µM]
CC(=O)Oc1cccc(O)c1 [Resorcinol monoacetate]	> 45.8	> 45.8
C=C[C@]1(C)C[C@@H](OC(=O)CS[C@@H]2C[C@H]3CC[C@@H](C2)N3C)[C@]2(C)[C@H](C)CC[C@]3(CCC(=O)[C@H]32)[C@@H](C)[C@@H]1O [Retapamulin]	> 45.8	> 45.8
CCCCCCCCCCCCCCCC(=O)OC/C=C(C)/C=C/C=C(C)/C=C/C1=C(C)CCCC1(C)C [Retinyl palmitate]	> 45.8	> 45.8
CN(C)C(=O)c1cc2cnc(Nc3ccc(N4CCNCC4)cn3)nc2n1C1CCCC1 [Ribociclib (LEE011)]	> 45.8	> 45.8
CO[C@H]1/C=C/O[C@@]2(C)Oc3c(C)c(O)c4c(O)c(c5c(nc6cc(C)ccn65)c4c3C2=O)NC(=O)/C(C)=C\C=C\[C@H](C)[C@H](O)[C@@H](C)[C@@H](O)[C@@H](C)[C@H](OC(C)=O)[C@@H]1C [Rifaximin]	> 45.8	> 45.8
COC(=O)N(C)c1c(N)nc(-c2nn(Cc3ccccc3F)c3ncccc23)nc1N [Riociguat]	> 45.8	> 45.8
C[C@H]1CNCCCN1S(=O)(=O)c1cccc2cncc(F)c12 [Ripasudil]	> 45.8	> 45.8
O=P(O)(O)C(O)(Cc1cccnc1)P(=O)(O)O [Risedronate sodium]	> 45.8	> 45.8
CC(NCCc1ccc(O)cc1)C(O)c1ccc(O)cc1 (stereo unspecified) [Ritodrine hydrochloride]	> 45.8	> 45.8
O=C(NC[C@H]1CN(c2ccc(N3CCOCC3=O)cc2)C(=O)O1)c1ccc(Cl)s1 [Rivaroxaban]	> 45.8	> 45.8
CCN(C)C(=O)Oc1cccc([C@H](C)N(C)C)c1 [Rivastigmine tartrate]	> 45.8	> 45.8
N=C(N/N=C/c1ccc(Cl)cc1)N/N=C/c1ccc(Cl)cc1 [Robenidine]	> 45.8	> 45.8
CN(C)[C@@H]1C(O)=C(C(=O)NCN2CCCC2)C(=O)[C@@]2(O)C(O)=C3C(=O)c4c(O)cccc4[C@@](C)(O)[C@H]3C[C@@H]12 [Rolitetracycline]	> 45.8	> 45.8
CCCN(CCC)CCc1cccc2c1CC(=O)N2 [Ropinirole]	> 45.8	> 45.8
CN(CCOc1ccc(CC2SC(=O)NC2=O)cc1)c1ccccn1 (stereo unspecified) [Rosiglitazone]	> 45.8	> 45.8
CCCN(CCc1cccs1)[C@H]1CCc2c(O)cccc2C1 [Rotigotine]	> 45.8	> 45.8
CC(=O)OCC(=O)NCCCOc1cccc(CN2CCCCC2)c1 [Roxatidine acetate hydrochloride]	> 45.8	> 45.8
CNCc1ccc(-c2[nH]c3cc(F)cc4c3c2CCNC4=O)cc1 [Rucaparib]	> 45.8	> 45.8
C[C@@H]1O[C@@H](OC[C@H]2O[C@@H](Oc3c(-c4ccc(O)c(O)c4)oc4cc(O)cc(O)c4c3=O)[C@H](O)[C@@H](O)[C@@H]2O)[C@H](O)[C@H](O)[C@H]1O [Rutin trihydrate]	> 45.8	> 45.8
CCOC(=O)/C=C(C)/C=C/C[C@@H](C)CCCC(C)C [S-Hydroprene]	> 45.8	> 45.8
CC(C)(C)NCC(O)c1ccc(O)c(CO)c1 (stereo unspecified) [Salbutamol]	> 45.8	> 45.8
O=C(Oc1ccccc1C(=O)O)c1ccccc1O [Salsalate]	> 45.8	> 45.8
CN1[C@@H]2C[C@@H](OC(=O)[C@H](CO)c3ccccc3)C[C@H]1[C@@H]1O[C@@H]12 [Scopolamine hydrobromide]	> 45.8	> 45.8
C[N+]1(C)[C@@H]2C[C@@H](OC(=O)[C@H](CO)c3ccccc3)C[C@H]1[C@@H]1O[C@@H]12 [Scopolamine methylbromide]	> 45.8	> 45.8
Cc1ncc([N+](=O)[O-])n1CC(C)O (stereo unspecified) [Secnidazole]	> 45.8	> 45.8
C#CCN(C)[C@H](C)Cc1ccccc1 [Selegiline hydrochloride]	> 45.8	> 45.8

Second part, the molecule after the results:

IC50 cell viability (ICRF193 0 nM) [µM]	IC50 cell viability (ICRF193 200 nM) [µM]	SMILES
> 45.8	> 45.8	CCCC(=O)O[C@]1(C(=O)CC)CC[C@H]2[C@@H]3CCC4=CC(=O)CC[C@]4(C)[C@H]3[C@@H](O)C[C@@]21C [Resocortol butyrate]
> 45.8	> 45.8	NC(=O)c1ncn([C@@H]2O[C@H](CO)[C@@H](O)[C@H]2O)n1 [Ribavirin]
> 45.8	> 45.8	NC[C@H]1O[C@H](O[C@H]2[C@H](O[C@@H]3O[C@H](CO)[C@@H](O)[C@H]3O)[C@@H](O)[C@H](N)C[C@@H]2N)[C@H](N)[C@@H](O)[C@@H]1O [Ribostamycin sulfate]
> 45.8	> 45.8	CO[C@H]1/C=C/O[C@@]2(C)Oc3c(C)c(O)c4c(c3C2=O)C2=NC3(CCN(CC(C)C)CC3)NC2=C(NC(=O)/C(C)=C\C=C\[C@H](C)[C@H](O)[C@@H](C)[C@@H](O)[C@@H](C)[C@H](OC(C)=O)[C@@H]1C)C4=O [Rifabutin]
> 45.8	> 45.8	CO[C@H]1/C=C/O[C@@]2(C)Oc3c(C)c(O)c4c(O)c(c(/C=N/N5CCN(C6CCCC6)CC5)c(O)c4c3C2=O)NC(=O)/C(C)=C\C=C\[C@H](C)[C@H](O)[C@@H](C)[C@@H](O)[C@@H](C)[C@H](OC(C)=O)[C@@H]1C [Rifapentine]
> 45.8	> 45.8	CC(N)C12CC3CC(CC(C3)C1)C2 (stereo unspecified) [Rimantadine]
> 45.8	> 45.8	CCC(=O)[C@@]1(C)[C@H](C)C[C@H]2[C@@H]3CCC4=CC(=O)C=C[C@]4(C)[C@H]3[C@@H](O)C[C@@]21C [Rimexolone]
> 45.8	> 45.8	CCCCCOc1ccc(C2SC(=O)NC2=O)cc1OCC (stereo unspecified) [Risarestat]
> 45.8	> 45.8	Cc1nc2n(c(=O)c1CCN1CCC(c3noc4cc(F)ccc34)CC1)CCCC2 [Risperidone]
> 45.8	> 45.8	CN(C)CCc1c[nH]c2ccc(Cn3cncn3)cc12 [Rizatriptan Benzoate]
> 45.8	> 45.8	Cc1cccc(C)c1N(CCCc1cccnc1)C(=O)C(C)N (stereo unspecified) [Ro 22-9194]
> 45.8	> 45.8	C=CC[N+]1([C@H]2C[C@H]3[C@@H]4CC[C@H]5C[C@H](O)[C@@H](N6CCOCC6)C[C@]5(C)[C@H]4CC[C@]3(C)[C@H]2OC(C)=O)CCCC1 [Rocuronium bromide]
> 45.8	> 45.8	CS(=O)(=O)c1ccc(C2=C(c3ccccc3)C(=O)OC2)cc1 [Rofecoxib]
> 45.8	> 45.8	O=C(Nc1c(Cl)cncc1Cl)c1ccc(OC(F)F)c(OCC2CC2)c1 [Roflumilast]
> 45.8	> 45.8	COc1ccc(C2CNC(=O)C2)cc1OC1CCCC1 (stereo unspecified) [Rolipram]
> 45.8	> 45.8	CCCN1CCCC[C@H]1C(=O)Nc1c(C)cccc1C [Ropivacaine hydrochloride]

IC50 cell viability (ICRF193 0 nM) [µM]	IC50 cell viability (ICRF193 200 nM) [µM]	SMILES
> 45.8	> 45.8	CC(C)c1nc(N(C)S(C)(=O)=O)nc(-c2ccc(F)cc2)c1/C=C/[C@@H](O)C[C@@H](O)CC(=O)O [Rosuvastatin calcium (Crestor)]
> 45.8	> 45.8	CC[C@H]1OC(=O)[C@H](C)[C@@H](O[C@H]2C[C@@](C)(OC)[C@@H](O)[C@H](C)O2)[C@H](C)[C@@H](O[C@@H]2O[C@H](C)C[C@H](N(C)C)[C@H]2O)[C@](C)(O)C[C@@H](C)/C(=N\OCOCCOC)[C@H](C)[C@@H](O)[C@]1(C)O [Roxithromycin]
> 45.8	> 45.8	NC(=O)c1cn(Cc2c(F)cccc2F)nn1 [Rufinamide]
> 45.8	> 45.8	CC(OC(=O)OC1CCCCC1)OC(=O)C1=C(CSc2nnnn2CCN(C)C)CS[C@@H]2[C@H](NC(=O)Cc3csc(N)n3)C(=O)N12 (stereo partly specified) [SCE 2174]
> 45.8	> 45.8	CCCCCCCCCCCCOC(=O)CS(=O)(=O)O [SODIUM LAURYL SULFOACETATE]
> 45.8	> 45.8	CCCCC(CC)CCC(CC(C)C)OS(=O)(=O)O (stereo unspecified) [SODIUM TETRADECYL SULFATE]
> 45.8	> 45.8	O=C1C(CC[S+]([O-])c2ccccc2)C(=O)N(c2ccccc2)N1c1ccccc1 (stereo unspecified) [SULFINPYRAZONE]
> 45.8	> 45.8	O=C1NS(=O)(=O)c2ccccc21 [Saccharin]
> 45.8	> 45.8	C[C@H](NCc1ccc(OCc2cccc(F)c2)cc1)C(N)=O [Safinamide]
> 45.8	> 45.8	OCc1ccccc1O [Salicyl alcohol]
> 45.8	> 45.8	NC(=O)c1ccccc1O [Salicylamide]
> 45.8	> 45.8	OC[C@H]1O[C@@H](OCCc2ccc(O)cc2)[C@H](O)[C@@H](O)[C@@H]1O [Salidroside]
> 45.8	> 45.8	O=C(O)c1cn(-c2ccc(F)cc2)c2cc(N3CCNCC3)c(F)cc2c1=O [Sarafloxacin hydrochloride]
> 45.8	> 45.8	COc1cccc(CCc2ccccc2OCC(CN(C)C)OC(=O)CCC(=O)O)c1 (stereo unspecified) [Sarpogrelate hydrochloride]
> 45.8	> 45.8	N#C[C@@H]1C[C@@H]2C[C@@H]2N1C(=O)[C@@H](N)C12CC3CC(CC(O)(C3)C1)C2 [Saxagliptin]
> 45.8	> 45.8	COc1cc2c(c(OC)c1OC)-c1c(cc3c(c1OC)OCO3)C[C@H](C)[C@@](C)(O)C2 [Schisandrol B]
